This note sets out measurements from patent US4127656A, “Method of inhibiting lipogensis with 3-(benzoyl)oxiranecarboxamides” (Shell Oil Company, priority 1978, dated 1978).

By inhibition is commonly meant the change of the read-out against control, counted positive when it falls.

The first experiment has as its system lipogenesis (swine adipose tissue). The experiment is described as follows: inhibition of lipogenesis from glucose-U-14C in pig adipose tissue slices (percent inhibition of lipid synthesis). It counts as cell-based, pig (swine). The settings on record: Sus scrofa, 100 micrograms per milliliter, 37° C., 2 hours, triplicate, read-out: Percent Inhibition (of lipogenesis compared to control). An excerpt: (§1) The manner in which they cause this effect is not known with certainty; it is believed that they interfere with the synthesis of fatty acids in the tissues. Their effectiveness for this purpose has been ascertained by immersing samples of animal liver or adipose tissue in a liquid medium containing radioactive glucose and the test chemical, for a period of time, then isolating the lipid from the treated tissues and determining the up-take of the radioactive carbon by means of scintillation counting techniques. These tests were conducted in both liver and adipose tissue, because in some animals the primary site of lipogenesis appears to be liver tissue, while in others it appears to be adipose tissue. The test animals were pigs, chickens and sheep.
Described in more detail, the tests were conducted according to the following general procedure:
Tissue slices (200 milligrams for liver and 150 milligrams for adipose tissue) were incubated at 37° C. for 2 hours with shaking in 3 milliliters of Krebs-Ringer bicarbonate solution containing one-half the normal calcium ion concentration, 60 micromoles of glucose, 0.5 microCurie of glucose-U^14 C., 300 microunits of insulin, and 5% dimethyl sulfoxide (DMSO). The test compounds were added as a suspension in DMSO and were present at a concentration of 100 micrograms per milliliter of the incubation mixture.
The incubation was terminated by addition of 0.25 milliliter of 1 N sulfuric acid. The resulting mixture was extracted with a total of 25 milliliters of chloroform:methanol (2:1, v/v). The extracts were washed according to Folch et al. (J. Biol. Chem., 226, 497-509, (1957)), air dried, and counted in a liquid scintillation counter with 15 milliliters of counting fluid (two parts toluene containing 0.4% w/v New England Nuclear Omnifluor:one part Triton X-100). The tests were conducted in triplicate and were accompanied by control tests in which all ingredients,proportions and conditions were the same except that no test compound was included. From the date obtained were calculated the percent inhibition of lipid synthesis by the test compounds in each case.
Compound 1 was tested with respect to all of the animals. The other compounds were tested only with respect to the pig.
From these and other tests, it has been established that in pigs there is little lipogenic activity in the liver tissue. From these and other tests, it also has been established that swine adipose tissue utilizes glucose for lipogenesis, and to be the major site of fatty acid synthesis. The data obtained from the tests using adipose tissue and glucose are set out in Table 1, as the percent inhibition of lipogenesis compared to the results obtained in the control tests wherein only the test compound was omitted.
For the molecule `NC(=O)[C@@H]1O[C@H]1C(=O)c1ccc(Cl)cc1` (relative stereo) [Compound 1, 3-(4-chlorobenzoyl)oxiranecarboxamide(trans)], the inhibition at 100 µg/mL came to 94%.

`CN(C)C(=O)[C@@H]1O[C@H]1C(=O)c1ccc(Cl)cc1` (relative stereo) [Compound 2, 3-(4-chlorobenzoyl)-N,N-dimethyloxiranecarboxamide(trans)]: the inhibition at 100 µg/mL came to 70%.

Turning to `CNC(=O)[C@@H]1O[C@H]1C(=O)c1ccc(Cl)cc1` (relative stereo) [Compound 3, 3-(4-chlorobenzoyl)-N-methyloxiranecarboxamide(trans)], the inhibition at 100 µg/mL turned out to be 96%.

For the molecule `NC(=O)[C@@H]1O[C@H]1C(=O)c1ccc(Cl)c(Cl)c1` (relative stereo) [Compound 4, 3-(3,4-dichlorobenzoyl)oxiranecarboxamide(trans)], the inhibition at 100 µg/mL worked out at 96%.

As to `Cc1ccc(C(=O)[C@@H]2O[C@H]2C(N)=O)cc1` (relative stereo) [Compound 5, 3-(4-methylbenzoyl)oxiranecarboxamide(trans)], the inhibition at 100 µg/mL is 89%.

Turning to `NC(=O)[C@@H]1O[C@H]1C(=O)c1ccccc1` (relative stereo) [Compound 6, 3-(benzoyl)oxiranecarboxamide(trans)], the inhibition at 100 µg/mL was 91%.

For `CC(C)NC(=O)[C@@H]1O[C@H]1C(=O)c1ccc(Cl)cc1` (relative stereo) [Compound 7, 3-(4-chlorobenzoyl)-N-(1-methylethyl)oxiranecarboxamide(trans)], the inhibition at 100 µg/mL was found to be 90%.

Regarding `NC(=O)[C@@H]1O[C@H]1C(=O)c1cccc([N+](=O)[O-])c1` (relative stereo) [Compound 8, 3-(3-nitrobenzoyl)oxiranecarboxamide(trans)], the inhibition at 100 µg/mL was 96%.

Regarding `C=CCNC(=O)[C@@H]1O[C@H]1C(=O)c1ccc(Cl)cc1` (relative stereo) [Compound 9, 3-(4-chlorobenzoyl)-N-(2-propenyl)oxiranecarboxamide(trans)], the inhibition at 100 µg/mL amounted to 94%.

With `O=C(c1ccc(Cl)cc1)[C@@H]1O[C@H]1C(=O)N1CCOCC1` (relative stereo) [Compound 10, (4-chlorophenyl) (3-(4-morpholinylcarbonyl)oxiranyl)methanone(trans)], the inhibition at 100 µg/mL was found to be 77%.

Consider `CC(=O)Nc1ccc(C(=O)[C@@H]2O[C@H]2C(N)=O)cc1` (relative stereo) [Compound 11, 3-(4-acetamidobenzoyl)oxiranecarboxamide(trans)], for which the inhibition at 100 µg/mL was 23%.

As for `COc1ccc(C(=O)[C@@H]2O[C@H]2C(N)=O)cc1` (relative stereo) [Compound 12, 3-(4-methoxybenzoyl)oxiranecarboxamide(trans)], the inhibition at 100 µg/mL amounted to 64%.

With `C#CCNC(=O)[C@@H]1O[C@H]1C(=O)c1ccc(Cl)cc1` (relative stereo) [Compound 13, 3-(4-chlorobenzoyl)-N-(2-propynyl)oxiranecarboxamide(trans)], the inhibition at 100 µg/mL was 87%.

Take `NC(=O)[C@@H]1O[C@H]1C(=O)c1ccc(Br)cc1` (relative stereo) [Compound 14, 3-(4-bromobenzoyl)oxiranecarboxamide(trans)]: the inhibition at 100 µg/mL stood at 90%.

Take `NC(=O)[C@@H]1O[C@H]1C(=O)c1ccc(F)cc1` (relative stereo) [Compound 15, 3-(4-fluorobenzoyl)oxiranecarboxamide(trans)]: the inhibition at 100 µg/mL amounted to 90%.

As for `NC(=O)[C@@H]1O[C@H]1C(=O)c1ccc(Cl)cc1Cl` (relative stereo) [Compound 16, 3-(2,4-dichlorobenzoyl)oxiranecarboxamide(trans)], the inhibition at 100 µg/mL was 91%.

Consider `NC(=O)[C@@H]1O[C@H]1C(=O)c1cccc(C(F)(F)F)c1` (relative stereo) [Compound 17, 3-(3-(trifluoromethyl)benzoyl)oxiranecarboxamide(trans)], for which the inhibition at 100 µg/mL was 94%.

The test system of another experiment is lipogenesis (liver). As to the kind of experiment: inhibition of glucose incorporation into lipid in chicken liver tissue slices. It counts as cell-based. The settings on record: 100 micrograms per milliliter, 37° C., 2 hours.
Description: as §1
(§2) Described in more detail, the tests were conducted according to the following general procedure: […]
(§3) The incubation was terminated by addition of 0.25 milliliter of 1 N sulfuric acid. […] The extracts were washed according to Folch et al. (J. Biol. Chem., 226, 497-509, (1957)), air dried, and counted in a liquid scintillation counter with 15 milliliters of counting fluid (two parts toluene containing 0.4% w/v New England Nuclear Omnifluor:one part Triton X-100). […] From the date obtained were calculated the percent inhibition of lipid synthesis by the test compounds in each case. […]
Consider `NC(=O)[C@@H]1O[C@H]1C(=O)c1ccc(Cl)cc1` (relative stereo) [Compound 1, 3-(4-chlorobenzoyl)oxiranecarboxamide(trans)], for which the “inhibition of glucose incorporation into the liver” value is listed as 54%.

The next experiment deals with lipogenesis (liver). The experiment is described as follows: inhibition of glucose incorporation into lipid in sheep liver tissue slices. It counts as cell-based. The settings on record: 100 micrograms per milliliter, 37° C., 2 hours.
Description: as §1, §2, §3
For `NC(=O)[C@@H]1O[C@H]1C(=O)c1ccc(Cl)cc1` (relative stereo) [Compound 1, 3-(4-chlorobenzoyl)oxiranecarboxamide(trans)], the “inhibition of glucose incorporation in the liver” value is listed as 15%.

Another experiment has as its system lipogenesis (adipose tissue). The experiment is described as follows: inhibition of glucose incorporation into lipid in sheep adipose tissue slices. The settings on record: 100 micrograms per milliliter, 37° C., 2 hours. Format: cell-based.
Description: as §1, §2, §3
`NC(=O)[C@@H]1O[C@H]1C(=O)c1ccc(Cl)cc1` (relative stereo) [Compound 1, 3-(4-chlorobenzoyl)oxiranecarboxamide(trans)]: the “inhibition of glucose incorporation in adipose tissue” value is 65%.
